From US20210186947A1, “TOMM6-INTERACTING EXTRACTS AND COMPOUNDS FOR USE IN THE TREATMENT AND PROPHYLAXIS OF NERVOUS SYSTEM DISEASES, ATHEROSCLEROSIS, HEPATITIS B INFECTION AND HUMAN PAPILLOMA VIRUS (HPV) INFECTION” (ETH ZURICH, priority 2018, published 2021) come the findings set out here.

Data set [1] deals with atherosclerotic lesions in the aorta. As to the kind of experiment: Atherosclerotic lesion area in oil red O-stained aortas of ApoE-/- mice. It is filed as in vivo. Conditions: 9-month-old ApoE-/- mice, 10 mg/kg/d in drinking water for 8 months. On the procedure: ApoE−/− mice (Taconic Biosciences, Rensselaer, N.Y., USA) with deficiency of apolipoprotein E (ApoE−/−) due to disruption of the endogenous ApoE gene were used as a genetic model of atherosclerosis (Piedrahita et al., Proc. Natl. Acad. Sci. U.S.A., 89, 4471-4475, 1992). Atherosclerotic lesion area was determined by quantitative image analysis with oil red O-stained aortas. Total plasma cholesterol was determined by a commercial kit (Sigma). Mice were kept on a 12 h dark and 12 h light cycle, had free access to food and water, and were fed a standard rodent chow (AIN-95-based diet without vitamin E supplementation and with 7% fat and 0.15% cholesterol). For the study, we used ApoE−/− mice on a B6 (C57BL/6J) background and non-transgenic B6 control mice. Alizarin treatment (10 mg/kg/day in drinking water) was initiated at an age of 4 weeks and continued for eight months until the end of the observation period. […]
(§1) Alzheimer's Disease (AD) is the most frequent form of dementia in the elderly. […] Atherosclerotic lesion area was assessed with oil red O-stained aortas isolated from 9-month-old ApoE−/− mice (FIG. 17A). […] The aortic expression levels of neuronal marker genes of alizarin-treated ApoE−/− mice were determined compared to untreated ApoE−/− mice and untreated B6 mice without atherosclerosis (FIG. 17D,E).

The nature of data set [2]: Measurement of serum level in rats by HPLC. It counts as in vivo, Sprague Dawley rats. On the procedure:
Serum concentrations of alizarin were determined with serum isolated from the blood of male and female German shepherd dogs (age: 8-9 months) taken at different time points (0.5 h, 1 h, 2 h, 4 h, 6 h, 8 h, 24 h) after oral intake of the indicated doses for 4 weeks. In addition, serum concentrations of alizarin (Compound-1) were determined in male and female Sprague Dawley rats (body weight: 200-250 g) treated for 1 month and/or three months by oral gavage of alizarin at a once daily dose of 100 mg/kg, 50 mg/kg, 25 mg/kg and 12.5 mg/kg. Serum proteins were removed by acetonitrile precipitation, and alizarin was extracted by chloroform before separation on an HPLC-C18 column (Poroshell 120 EC-C18, 3.0×50 mm, Agilent) with an HPLC system (Agilent 1100 Series) and detection at OD245 nm. For quantitative determination of Compound-7 and Compound-10F in rat and dog serum, serum proteins were also removed by acetonitrile precipitation before HPLC analysis as detailed above and detection at OD254 nm.

A further data set concerns Ccr9. As to the kind of experiment: Whole genome microarray gene expression analysis of aortic genes: Ccr9. It is filed as in vivo. Conditions: ApoE-/- mice, 10 mg/kg/day for 8 months. On the procedure:
(§2) Whole genome microarray gene expression profiling was performed with aortic specimens isolated from 9-month-old ApoE−/− mice without treatment and with oral treatment for 8 months with alizarin (10 mg/kg/day), and untreated age-matched B6 control mice. Total RNA was isolated by the RNeasy Mini kit according to the protocol of the manufacturer (Qiagen). RNA purity was between 1.8 and 2 as determined by the absorbance ratio of 260/280. RNA quality and absence of signs of degradation were also controlled by RNA electrophoresis on a denaturing agarose gel by the presence of bright bands of 28S and 18S ribosomal RNA. Total RNA was processed for whole genome microarray gene expression profiling with the GeneChip One-Cycle Target Labeling System (Affymetrix) according to the protocol of the manufacturer (Affymetrix GeneChip Expression Analysis Technical Manual Rev. 5). […]
as §1

The subject of the next data set is neuropeptide Y (Npy). Kind of data set: Whole genome microarray gene expression analysis of aortic genes: Npy. It counts as in vivo. The following applies: ApoE-/- mice, 10 mg/kg/day for 8 months. On the procedure: as §2, §1
For data set [3], the system named is hippocampal neuronal cell bodies (NeuN). Kind of data set: Hippocampal neuronal loss in Tg2576 mice subjected to CUMS, binding assay with [125I]-labeled anti-NeuN antibody. It counts as in vivo. The following applies: 15 months-old Tg2576 mice, 3 months of CUMS, treated during CUMS; compounds 10 mg/kg/d.

As to `O=C1c2ccccc2C(=O)c2c1ccc(O)c2O` [Compound-1, 1,2-dihydroxyanthraquinone], the “atherosclerotic lesion area, lower compared to untreated ApoE-/- mice” value in data set [1] is reported as 3.6 fold. In addition, the “oral bioavailability / serum concentrations after oral intake” value in data set [2] (rats) is given as “achieves therapeutic serum concentrations”. The “oral doses required to achieve equivalent peak serum concentrations, higher in rats compared to dogs” value in data set [2] (rats vs dogs) is recorded as “approximately 10 fold”. In addition, the “aortic expression of Ccr9” value in the data set with Ccr9 is recorded as “significantly decreased expression”. Besides, the “aortic expression level of Npy” value in the data set on neuropeptide Y (Npy) is “not down-regulated and maintained at the levels of the non-transgenic B6 controls”. In addition, the hippocampal neuronal loss entry in data set [3] is listed as “prevented”.
